Assay results taken from publication PMC8038316 (International Journal of Molecular Sciences, 2021).

Assays:
[1] = target: T1, succinate dehydrogenase (SDH; succinate:quinone oxidoreductase, SQR, EC 1.3.5.1; complex II) (Pyricularia oryzae, UniProt A0ABQ8NN34+G4N2P5+G4NB04); test: biochemical
T1 construct: gene SDH2

[2] = target: T2, cytochrome bc1 complex (complex III; decylubiquinol:Cyt c reductase, EC 1.10.2.2) (Pyricularia grisea, UniProt Q85KP9); test: biochemical; conditions: read-out: % inhibition at 50 μM
T2 construct: gene cytb

Structure (SMILES) | inhibition at 400 µM ([1]; read-out: % inhibition at 400 μM) | inhibition at 50 µM [2] | inhibition at 40 µM ([1]; read-out: % inhibition at 40 μM)
CO/C=C(/C(=O)OC)c1ccccc1COc1cccc(NC(=O)c2ccccc2NC(C)=O)c1 [11b] | ~23% | 58 ± 18% | 
CO/C=C(/C(=O)OC)c1ccccc1Oc1cc(Oc2ccccc2C#N)ncn1 [compound 2, azoxystrobin] |  | 61 ± 10% | 
Cn1cc(C(=O)Nc2ccccc2-c2cc(F)c(F)c(F)c2)c(C(F)F)n1 [compound 6, fluxapyroxad] |  |  | > 90%
